In US20190167716A9, “Use of Electrolyzed Water for Treatment and Prevention of Common Livestock Diseases and Conditions, Including PRRS” (priority 2013, published 2019):

System: streptococcus
Test: Fog test in bi-room swine confinement infected with streptococcus
Assay type: in vivo
Details: both rooms after a course of R-pen; recurred 10 days later in the control room
Protocol: A test was conducted in a 70′×280′ bi-room configuration swine confinement in a wean to finish operation infected with streptococcus symptoms and showing severe symptoms. The swine confinement included a common effluent pit with center dividing wall and pit level equalization cutouts at the base. Each room included a standard layout with […] and a 24 inch gated alleyway. Capacity was 2480 head, each room was 70 feet by 140 feet; one room was used as the test room to receive the electrolyzed water treatment, the other as a control. Two high pressure lines, centered through the barn at 12 inches below the ceiling, were used to deliver the electrolyzed water. The water was delivered via 60 nozzles in the treatment room, rated at 0.020 gallons per minute, two for each pen, at 1000 psi. The output of fog or mist to the room was 1.2 gallon per minute, delivered by 1000 psi 3 gpm 2 horsepower pump, actuated by a preset timer. The fog was administered for about 1 minute, each of four times a day at generally equally spaced intervals. Total was about 4.8 gallons per 24 hour period.
Both rooms were filled Oct. 17, 2013. Treatment began 1 week later and continued for 15 weeks. […] The death report, per room per week during the 15 week trial was as follows: […]

`CC1(C)S[C@@H]2[C@H](NC(=O)Cc3ccccc3)C(=O)N2[C@H]1C(=O)[O-].[K+]` [R-pen] was tested, and the strep symptoms was “decrease in strep symptoms”.
